The numbers were not newly measured in patent US20030027804A1, “Therapeutic combinations for the treatment of hormone deficiencies” (priority 2001, published 2003), which cites them from elsewhere.

For data set [1] the following is noted: oral, sublingual or buccal 17-alkylated androgens.
For data set [2] the following is noted: in vivo.
The test system of data set [3] is sex hormone binding globulin (SHBG), albumin. The following applies: circulating in the blood.
The target in data set [4] is sex hormone binding globulin (SHBG), albumin (Homo sapiens, UniProt P02768). The settings on record: in men.
Chain of sex hormone binding globulin (SHBG), albumin (Homo sapiens, UniProt P02768) (P02768 25-609): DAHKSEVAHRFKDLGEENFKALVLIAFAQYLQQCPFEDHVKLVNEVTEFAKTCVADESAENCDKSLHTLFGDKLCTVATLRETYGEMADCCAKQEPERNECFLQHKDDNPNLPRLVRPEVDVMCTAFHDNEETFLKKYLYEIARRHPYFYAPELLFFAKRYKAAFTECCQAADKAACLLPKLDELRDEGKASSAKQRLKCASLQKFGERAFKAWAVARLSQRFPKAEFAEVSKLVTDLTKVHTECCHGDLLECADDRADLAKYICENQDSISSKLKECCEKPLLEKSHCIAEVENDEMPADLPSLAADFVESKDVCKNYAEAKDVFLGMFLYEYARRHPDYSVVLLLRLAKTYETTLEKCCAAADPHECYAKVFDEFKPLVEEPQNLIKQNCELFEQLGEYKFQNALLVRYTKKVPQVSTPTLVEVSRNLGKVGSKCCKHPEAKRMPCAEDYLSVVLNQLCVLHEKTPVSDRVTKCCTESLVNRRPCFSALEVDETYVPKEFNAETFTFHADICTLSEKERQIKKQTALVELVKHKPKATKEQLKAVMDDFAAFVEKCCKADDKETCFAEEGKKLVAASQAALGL
In data set [5] the target is T1, sex hormone binding globulin (SHBG), albumin (Homo sapiens, UniProt P04278).
T1 sequence (P04278 30-402): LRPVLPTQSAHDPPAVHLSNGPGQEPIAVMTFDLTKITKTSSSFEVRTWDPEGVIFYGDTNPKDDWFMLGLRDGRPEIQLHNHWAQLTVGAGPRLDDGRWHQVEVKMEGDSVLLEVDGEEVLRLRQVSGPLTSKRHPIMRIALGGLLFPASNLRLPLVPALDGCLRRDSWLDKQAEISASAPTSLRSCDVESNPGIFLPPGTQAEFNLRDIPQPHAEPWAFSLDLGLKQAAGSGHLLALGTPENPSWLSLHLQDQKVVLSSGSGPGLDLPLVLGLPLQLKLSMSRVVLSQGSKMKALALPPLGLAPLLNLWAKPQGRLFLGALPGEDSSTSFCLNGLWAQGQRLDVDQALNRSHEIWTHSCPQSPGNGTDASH
The following applies: in men.

For data set [6] the following is noted: oral.

Take `C[C@]12CCC(=O)C=C1CC[C@@H]1[C@@H]2CC[C@@]2(C)[C@H]1CC[C@]2(C)O` [methyl testosterone, 17 alpha-methyl-testosterone]: the liver toxicity entry in data set [1] was “associated with liver toxicity”.

For `C[C@]12CC[C@@H]3c4ccc(O)cc4CC[C@H]3[C@@H]1CC[C@@H]2O` [estradiol, 1,3,5(10)-Estratriene-3,17 beta-diol], the “serum levels of estradiol required for clinical efficacy” value in data set [2] is 40 to 60 pg/mL.

As to `C[C@]1(O)CC[C@H]2[C@@H]3CCC4=CC(=O)CC[C@]4(C)[C@@]3(F)[C@@H](O)C[C@@]21C` [fluoxymesterone], the liver toxicity result in data set [1] is given as “associated with liver toxicity”.

On to `C[C@]12CC[C@H]3[C@@H](CCC4=CC(=O)CC[C@@]43C)[C@@H]1CC[C@@H]2O` [testosterone], for which, in data set [3], the “testosterone in blood bound to protein” value was 98%. Moreover, in data set [4], the “share bound weakly to albumin” value is on record as 60%. For the same compound, the “share of binding to high-affinity SHBG” value in data set [5] is given as “approximately 40%”. The “orally administered testosterone cleared by the liver in the first pass” value in data set [6] is “about 44%”.
